Experimental findings from patent publication US20260216348A1, “IRAK DEGRADATION AGENT AND USE THEREOF” (Increland, priority 2023, published 2026) are described below.

In one test the target is T1, IRAK4 (Homo sapiens, UniProt Q9NWZ3).
T1 construct: Effect of the Compounds on IRAK4 Protein Degradation in THP1 Cells; endogenous in cells; host or cells: THP-1 cells
T1 sequence (Q9NWZ3 1-460): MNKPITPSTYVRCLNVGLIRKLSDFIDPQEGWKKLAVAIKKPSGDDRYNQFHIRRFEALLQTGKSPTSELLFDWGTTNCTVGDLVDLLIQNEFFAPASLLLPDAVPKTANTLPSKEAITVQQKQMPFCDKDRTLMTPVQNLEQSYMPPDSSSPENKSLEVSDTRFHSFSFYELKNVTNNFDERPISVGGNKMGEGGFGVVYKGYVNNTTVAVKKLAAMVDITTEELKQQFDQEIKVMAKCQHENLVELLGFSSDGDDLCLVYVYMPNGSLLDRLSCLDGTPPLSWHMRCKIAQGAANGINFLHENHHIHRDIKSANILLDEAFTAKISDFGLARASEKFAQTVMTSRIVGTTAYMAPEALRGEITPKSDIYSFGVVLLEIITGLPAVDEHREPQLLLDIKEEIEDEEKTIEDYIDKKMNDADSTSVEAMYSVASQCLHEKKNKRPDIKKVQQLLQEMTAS
Put plainly: IRAK4 protein degradation in THP1 cells (Western blot). The class given is cell-based. The settings on record: THP-1 cells, 24 h. The procedure: THP-1 cells were seeded into a 96-well cell culture plate, with 2×10^5 cells and 90 μL of culture medium per well. The cell culture plate was cultured in an incubator with 5% CO2 at 37° C. overnight. The compound was dissolved in DMSO to prepare a stock solution, which was serially diluted into a series of working solutions with a 5-fold concentration gradient using the culture medium and then added to the aforementioned 96-well plate at 10 μL per well. The cell culture plate was further incubated for 24 h in a 5% CO2 incubator at 37° C. After incubation, the 96-well plate was centrifuged and the supernatant was discarded, followed by adding 40 μL of cell lysis buffer containing […]/phosphatase inhibitors to each well for sufficient lysis on an ice bath. Protein quantification was performed using the BCA protein quantification kit, followed by the preparation of Western blot samples. […] After electrophoresis, protein transfer was performed using a PVDF membrane under ice bath conditions for 1 h. After the transfer was completed, the PVDF membrane was blocked with gentle shaking in 5% skim milk at room temperature for 1 h. After blocking, the PVDF membrane was incubated with the primary antibody overnight with gentle shaking at 4° C. The PVDF membrane was washed 3 times with TBST, then the secondary antibody was added and incubated for 1 h with gentle shaking at room temperature, followed by washing of the PVDF membrane with TBST for 3 times. After the washes were completed, the chemiluminescent substrate was added; the PVDF membrane was scanned using a Clinx imager, semi-quantitative analysis was performed with ImageJ software, and the DC50 was calculated using GraphPad Prism 8.0.

Test [1] deals with LPS/IL-1β-induced IL-6 secretion in human peripheral blood mononuclear cells (PBMCs). In words: Inhibition of LPS/IL-1β-induced IL-6 secretion in human PBMCs (IL-6 ELISA). The class given is cell-based. To be noted: PBMC, LPS 10 ng/mL + IL-1β 20 ng/mL, 24 h pre-incubation, 20 h stimulation. The procedure: This experiment was carried out in RPMI 1640 medium containing 10% FBS and 1% penicillin/streptomycin, with each of the compounds at an initial test concentration of 1 μM.
The compound was dissolved in DMSO to prepare a stock solution, which was serially diluted into some working solutions with a 5-fold concentration gradient using the culture medium and then added to a 96-well plate at 10 μL per well. PBMCs (Batch No.: P122101102C; Milecell Biotechnology Inc.) were counted and diluted to a cell concentration of about 1.3×10^6 cells/mL, and then added to the aforementioned compound-containing 96-well plate at 150 μL per well. The system was mixed well and incubated in a 5% CO2 incubator at 37° C. for 24 h. Then 5 μL of LPS (final concentration: 10 ng/mL) and 5 μL of IL-1β (final concentration: 20 ng/mL) were added to each well, respectively, and the culture was continued for 20 h in a 5% CO2 incubator at 37° C. After incubation, the 96-well plate was centrifuged at 2000 rpm for 4 min. The supernatant was collected and diluted 200-fold, then detected using an IL-6 ELISA kit. The OD450 values were read, and converted to IL-6 concentrations based on a standard curve. The dose-response curves were fitted using GraphPad 8.0 to calculate the IC50 values.

Consider `CN(C)c1cc2nn([C@H]3CC[C@H](CN4CC[C@H](n5cc6cc(F)c(C7CCC(=O)NC7=O)cc6n5)[C@@H](F)C4)CC3)cc2cc1C(=O)Nc1cnn2cccnc12` (some centres unmarked) [TM-158], for which, on IRAK4, the DC50 is 1.41 nM. For the same compound, the IC50 in test [1] stood at 14.6 nM.
For `CN(C)c1cc2nn([C@H]3CC[C@H](CN4CC[C@@H](n5cc6cc(N7CCC(=O)NC7=O)c(F)cc6n5)[C@H](F)C4)CC3)cc2cc1NC(=O)c1cnn2cccnc12` [TM-41] the same measures were below 1 nM and 3.89 nM.
For `CN(C)c1cc2nn([C@H]3CC[C@H](CN4CC[C@H](n5cc6cc(N7CCC(=O)NC7=O)ccc6n5)[C@H](F)C4)CC3)cc2cc1NC(=O)c1cnn2cccnc12` [TM-18], the DC50 at IRAK4 was 1.2 nM. Further, in test [1], the IC50 worked out at 3.72 nM.
For `CN(C)c1cc2nn([C@H]3CC[C@H](CN4CC5(CCN(c6nc7ccc(C8CCC(=O)NC8=O)cn7n6)CC5)C4)CC3)cc2cc1NC(=O)c1cnn2cccnc12` (some centres unmarked) [TM-251] the same measures were 18.1 nM and 2.19 nM.
In turn, `CN(C)c1cc2nn([C@H]3CC[C@H](CN4CC[C@@H](n5cc6ccc(C7CCC(=O)NC7=O)cc6n5)[C@@H](F)C4)CC3)cc2cc1NC(=O)c1cnn2cccnc12` (some centres unmarked) [TM-154] had a half-maximal degradation concentration (DC50) at IRAK4 of 1.27 nM. Besides, the IC50 in test [1] was found to be 1.45 nM.
On IRAK4, `CN(C)c1cc2nn(C3CCN(C[C@H]4CC[C@H](n5cc6cc(N7CCC(=O)NC7=O)c(F)cc6n5)CC4)CC3)cc2cc1NC(=O)c1cnn2cccnc12` [TM-51] yielded a DC50 of 23.3 nM. The IC50 in test [1] worked out at 3.14 nM.
For `O=C1CCN(c2ccc3cn(C4CCN(C[C@H]5CC[C@H](n6cc7cc(NC(=O)c8cnn9cccnc89)c(N8CCOCC8)cc7n6)CC5)CC4)nc3c2)C(=O)N1` [TM-43] the same measures were 4.31 nM and 8.92 nM.
For `CN(C)c1cc2nn([C@H]3CC[C@H](CN4CC[C@@H](n5cc6cc(F)c(C7CCC(=O)NC7=O)cc6n5)[C@@H](F)C4)CC3)cc2cc1NC(=O)c1cnn2cccnc12` (some centres unmarked) [TM-139] the same measures were below 1 nM and 4.35 nM.
On the same counts, the results for `CN(C)c1cc2nn([C@H]3CC[C@H](CN4CC[C@@H](n5cc6cc(N7CCC(=O)NC7=O)ccc6n5)[C@H](F)C4)CC3)cc2cc1NC(=O)c1cnn2cccnc12` [TM-16] are 0.41 nM and 4.59 nM.
As to `C[C@@H]1CN(C[C@H]2CC[C@H](n3cc4cc(NC(=O)c5cnn6cccnc56)c(N(C)C)cc4n3)CC2)CC[C@H]1n1cc2ccc(C3CCC(=O)NC3=O)cc2n1` (some centres unmarked) [TM-142], at IRAK4, the DC50 came to 0.77 nM. For the same compound, the half-maximal inhibitory concentration (IC50) in test [1] amounted to 0.88 nM.
Consider `CN(C)c1cc2nn([C@H]3CC[C@H](CN4CC[C@@H](n5cc6cc(N7CCC(=O)NC7=O)ccc6n5)[C@@H](F)C4)CC3)cc2cc1NC(=O)c1cnn2cccnc12` [TM-15], for which the DC50 on IRAK4 amounted to 1.41 nM. Further, the IC50 in test [1] worked out at 4 nM.
Turning to `CN(C)c1cc2nn([C@H]3CC[C@H](CN4CC[C@H](n5cc6cc(C7CCC(=O)NC7=O)ccc6n5)[C@@H](F)C4)CC3)cc2cc1NC(=O)c1cnn2cccnc12` (some centres unmarked) [TM-168], half-maximal degradation at IRAK4 (DC50) was put at 1.78 nM.
Consider `CN(C)c1cc2nn([C@H]3CC[C@H](CN4CC[C@H](n5cc6ccc(N7CCC(=O)NC7=O)cc6n5)[C@@H](F)C4)CC3)cc2cc1NC(=O)c1cnn2cccnc12` [TM-31], for which the DC50 at IRAK4 came to 4.06 nM. Besides, the IC50 in test [1] is 3.29 nM.
For `CN(C)c1cc2nn([C@H]3CC[C@H](CN4CC[C@H](n5cc6cc(N7CCC(=O)NC7=O)ccc6n5)[C@@H](F)C4)CC3)cc2cc1NC(=O)c1cnn2cccnc12` [TM-17] the same measures were 1.19 nM and 3.37 nM.
As for `CN(C)c1cc2nn([C@H]3CC[C@H](CN4CCC(c5nc6ccc(N7CCC(=O)NC7=O)cc6o5)CC4)CC3)cc2cc1NC(=O)c1cnn2cccnc12` [TM-186], it took 0.98 nM to reach half-maximal degradation on IRAK4 (DC50).
On IRAK4, `CN(C)c1cc2nn([C@H]3CC[C@H](CN4CCC(c5nc6cc(C7CCC(=O)NC7=O)c(F)cc6o5)CC4)CC3)cc2cc1NC(=O)c1cnn2cccnc12` (some centres unmarked) [TM-147] came in with a 50% degradation concentration (DC50) of 11 nM.
In the case of `C[C@H]1CN(C[C@H]2CC[C@H](n3cc4cc(NC(=O)c5cnn6cccnc56)c(N(C)C)cc4n3)CC2)CC[C@@H]1n1cc2ccc(N3CCC(=O)NC3=O)cc2n1` [TM-27], at IRAK4, half-maximal degradation (DC50) was put at 4.27 nM. In test [1], the IC50 is 1.49 nM.
On to `CN(C)c1cc2nn([C@H]3CC[C@H](CN4CC[C@H](n5cc6ccc(N7CCC(=O)NC7=O)cc6n5)[C@H](F)C4)CC3)cc2cc1NC(=O)c1cnn2cccnc12` [TM-32], for which the DC50 on IRAK4 is 1.4 nM. For the same compound, in test [1], the IC50 stood at 1.21 nM.
On the same counts, the results for `CN(C)c1cc2nn([C@H]3CC[C@H](CN4CC[C@@H](n5cc6ccc(N7CCC(=O)NC7=O)cc6n5)[C@H](F)C4)CC3)cc2cc1NC(=O)c1cnn2cccnc12` [TM-30] are 1.33 nM and 1.05 nM.
For `CN(C)c1cc2nn(C3CCN(C[C@H]4CC[C@H](n5cc6ccc(C7CCC(=O)NC7=O)cc6n5)CC4)CC3)cc2cc1NC(=O)c1cnn2cccnc12` (some centres unmarked) [TM-5] the same measures were 4.62 nM and 0.26 nM.
On the same counts, the results for `CN(C)c1cc2nn([C@H]3CC[C@H](CN4CC[C@H](n5cc6ccc(C7CCC(=O)NC7=O)cc6n5)[C@@H](F)C4)CC3)cc2cc1NC(=O)c1cnn2cccnc12` (some centres unmarked) [TM-151] are 1.66 nM and 7.13 nM.
`CO[C@H]1CN(C[C@H]2CC[C@H](n3cc4cc(NC(=O)c5cnn6cccnc56)c(N(C)C)cc4n3)CC2)CC[C@@H]1n1cc2ccc(C3CCC(=O)NC3=O)cc2n1` (some centres unmarked) [TM-166] had a DC50 on IRAK4 of 1.58 nM. The IC50 in test [1] is 0.89 nM.
`CN(C)c1cc2nn([C@H]3CC[C@H](CN4C[C@@H](F)[C@H](n5cc6ccc(N7CCC(=O)NC7=O)cc6n5)C4)CC3)cc2cc1NC(=O)c1cnn2cccnc12` [TM-200]: the DC50 at IRAK4 was 1.79 nM.
On to `CN(C)c1cc2nn([C@H]3CC[C@H](CN4CCC(n5cc6cc(F)c(N7CCC(=O)NC7=O)cc6n5)CC4)CC3)cc2cc1NC(=O)c1cnn2cccnc12` [TM-10], for which the DC50 on IRAK4 came out at 4 nM. In addition, in test [1], the IC50 is 1.34 nM.
The compound `CN(C)c1cc2nn([C@H]3CC[C@H](CN4CCCN(c5nc6cc(N7CCC(=O)NC7=O)ccc6s5)CC4)CC3)cc2cc1NC(=O)c1cnn2cccnc12` [TM-59] displayed a DC50 on IRAK4 of 9.64 nM. The IC50 in test [1] is 10.9 nM.
For `CN(C)c1cc2nn([C@H]3CC[C@H](CN4CC[C@@H](n5cc6ccc(N7CCC(=O)NC7=O)cc6n5)[C@@H](F)C4)CC3)cc2cc1NC(=O)c1cnn2cccnc12` [TM-29] the same measures were 1.13 nM and 0.88 nM.
In turn, `CN(C)c1cc2nn([C@H]3CC[C@H](CN4CC[C@H](F)[C@@H](n5cc6ccc(N7CCC(=O)NC7=O)cc6n5)C4)CC3)cc2cc1NC(=O)c1cnn2cccnc12` [TM-213] returned a DC50 at IRAK4 of 1.74 nM.
The same measure, in the same setting: then `CN(C)c1cc2nn([C@H]3CC[C@H](CN4CCC5(CC4)C[C@@H](n4cc6cc(F)c(C7CCC(=O)NC7=O)cc6n4)CO5)CC3)cc2cc1NC(=O)c1cnn2cccnc12` (some centres unmarked) [TM-140], with 13.9 nM.
Same read-out and setting: under `CN(C)c1cc2nn(C3CCC(CN4CCC[C@H](n5cc6cc(N7CCC(=O)NC7=O)ccc6n5)C4)CC3)cc2cc1NC(=O)c1cnn2cccnc12` (some centres unmarked) [TM-204] stands 1.69 nM; under `CN(C)c1cc2nn([C@H]3CC[C@H](CN4C[C@@H]5[C@H](C4)[C@H]5n4cc5ccc(N6CCC(=O)NC6=O)cc5n4)CC3)cc2cc1NC(=O)c1cnn2cccnc12` [TM-182], 3.82 nM.
On to `CN(C)c1cc2nn([C@H]3CC[C@H](CN4CC5(CC(n6cc7ccc(N8CCC(=O)NC8=O)cc7n6)C5)C4)CC3)cc2cc1NC(=O)c1cnn2cccnc12` [TM-215], for which, on IRAK4, the DC50 turned out to be 0.95 nM.
